According to PMC5820112 (Journal of molecular and cellular cardiology, 2017):

Experiments:
[1] = target: T1, CaMKIIδ (Ca2+/calmodulin-dependent protein kinase II delta) (Homo sapiens, UniProt Q13557); assay: continuous coupled spectrophotometric kinase assay with autocamtide-3; assay type: biochemical
[2] = target: T1, CaMKIIδ (Ca2+/calmodulin-dependent protein kinase II delta); assay: as above; assay type: biochemical; remark: listed apart in the source

T1 sequence (Q13557 2-499): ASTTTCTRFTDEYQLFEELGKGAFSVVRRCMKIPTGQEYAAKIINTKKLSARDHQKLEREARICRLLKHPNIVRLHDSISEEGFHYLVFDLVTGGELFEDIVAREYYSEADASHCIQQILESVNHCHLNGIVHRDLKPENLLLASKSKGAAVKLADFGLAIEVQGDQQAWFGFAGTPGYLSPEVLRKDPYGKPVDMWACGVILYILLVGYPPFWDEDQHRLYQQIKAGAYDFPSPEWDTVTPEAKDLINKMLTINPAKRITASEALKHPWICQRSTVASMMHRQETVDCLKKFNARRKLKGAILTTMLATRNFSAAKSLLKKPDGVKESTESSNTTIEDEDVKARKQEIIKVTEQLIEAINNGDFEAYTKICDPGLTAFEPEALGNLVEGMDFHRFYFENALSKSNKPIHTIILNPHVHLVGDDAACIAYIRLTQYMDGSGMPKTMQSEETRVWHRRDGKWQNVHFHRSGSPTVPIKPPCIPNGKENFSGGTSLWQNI

IC50 [1] | Molecule | Ki [2]
1400 nM | COc1ccc(S(=O)(=O)N(CCO)c2ccccc2CN(C)C/C=C/c2ccc(Cl)cc2)cc1 [KN-93] | 
 | AS105 | 3 nM
